Broadly, the IC50 is the concentration that inhibits the measured activity by half. A word on the solubility: it is the concentration that dissolves in the medium under given conditions.

Consider 7 compounds from publication PMC6151435, “Bioactivity In Vitro of Quercetin Glycoside Obtained in Beauveria bassiana Culture and Its Interaction with Liposome Membranes” (Molecules : A Journal of Synthetic Chemistry and Natural …, 2017).

For series [1] the following is noted: rat, in vivo; cited from earlier work.
The test system of a further series is HSA. The conditions noted are these: cited from earlier work; for binding constant to HSA: ref [59].
Details of series [2]: method as in Strugała et al. [46]. The conditions noted are these: ref Strugała et al. [46]; read-out: IC50 AAPH PC (inhibition of AAPH induced oxidation of phosphatidylcholine liposomes); cited from earlier work.
For series [3] the following is noted: cited from earlier work.
Series [4] in a line: Solubility in water (literature values). The class given is physicochemical. The conditions noted are these: from cited values.

In brackets after ≈: the same amount, converted by molar mass. Read-outs that look alike come from different tables or passages of the source.

As for `O=c1c(O[C@@H]2O[C@H](CO)[C@@H](O)[C@H](O)[C@H]2O)c(-c2ccc(O)c(O)c2)oc2cc(O)cc(O)c12` [3-O-glucoside of quercetin], the “absorption, higher compared to quercetin itself” value in series [1] is listed as 184%.
As to `COc1ccc2c(c1)c(CC(=O)O)c(C)n2C(=O)c1ccc(Cl)cc1` [Indomethacin, indomethacin], in the series with HSA, the “binding constant to HSA” value was about 489000 M⁻¹.
In the case of `O=C1O[C@H]([C@@H](O)CO)C(O)=C1O` [L(+) ascorbic acid, L-(+)-ascorbic acid], the half-maximal inhibitory concentration (IC50) in series [2] is 129 ± 12.4 µM.
Consider `CC(=O)Oc1ccccc1C(=O)O` [aspirin], for which, in the series with HSA, the “binding constant to HSA” value is listed as “approximately 1.4 × 10^4 M^−1”.
Take `Cc1cnc(NC(=O)C2=C(O)c3ccccc3S(=O)(=O)N2C)s1` [meloxicam]: in the series with HSA (order of magnitude, ref [58]), the “association constant to HSA” value is recorded as ~10^5 M^−1. The “bound to HSA” value in the series with HSA (ref [58]) is given as “more than 99%”.
Consider `O=C1C[C@@H](c2ccc(O)cc2)Oc2cc(O)cc(O)c21` [naringenin], for which, in series [3] (at 20 °C, ref [9]), the solubility was 4.38 µg/mL (≈ 16.1 µM).
Turning to `C[C@@H]1O[C@@H](O[C@H]2[C@H](Oc3cc(O)c4c(c3)O[C@H](c3ccc(O)cc3)CC4=O)O[C@H](CO)[C@@H](O)[C@@H]2O)[C@H](O)[C@H](O)[C@H]1O` [naringin], the solubility in series [3] (ref [10]) is 500 µg/mL (≈ 861 µM). Also, the “solubility, fold higher than aglycone naringenin” value in series [4] is recorded as “more than 110 fold”.
